According to ChEMBL document CHEMBL3608294, “Epoxylathyrol Derivatives: Modulation of ABCB1-Mediated Multidrug Resistance in Human Colon Adenocarcinoma and Mouse T-Lymphoma Cells” (J Nat Prod, 2015):

Tests used:
[1] = target: T1, ATP-dependent translocase ABCB1 (Homo sapiens, UniProt P08183); test: Inhibition of ABCB1 in multidrug resistant human COLO320 cells assessed as fluorescence activity ratio at 20 uM incubated for 10 mins by flow cytometry based rhodamine-123 accumulation assay (reference value: 0.62)
T1 sequence (P08183 whole entry): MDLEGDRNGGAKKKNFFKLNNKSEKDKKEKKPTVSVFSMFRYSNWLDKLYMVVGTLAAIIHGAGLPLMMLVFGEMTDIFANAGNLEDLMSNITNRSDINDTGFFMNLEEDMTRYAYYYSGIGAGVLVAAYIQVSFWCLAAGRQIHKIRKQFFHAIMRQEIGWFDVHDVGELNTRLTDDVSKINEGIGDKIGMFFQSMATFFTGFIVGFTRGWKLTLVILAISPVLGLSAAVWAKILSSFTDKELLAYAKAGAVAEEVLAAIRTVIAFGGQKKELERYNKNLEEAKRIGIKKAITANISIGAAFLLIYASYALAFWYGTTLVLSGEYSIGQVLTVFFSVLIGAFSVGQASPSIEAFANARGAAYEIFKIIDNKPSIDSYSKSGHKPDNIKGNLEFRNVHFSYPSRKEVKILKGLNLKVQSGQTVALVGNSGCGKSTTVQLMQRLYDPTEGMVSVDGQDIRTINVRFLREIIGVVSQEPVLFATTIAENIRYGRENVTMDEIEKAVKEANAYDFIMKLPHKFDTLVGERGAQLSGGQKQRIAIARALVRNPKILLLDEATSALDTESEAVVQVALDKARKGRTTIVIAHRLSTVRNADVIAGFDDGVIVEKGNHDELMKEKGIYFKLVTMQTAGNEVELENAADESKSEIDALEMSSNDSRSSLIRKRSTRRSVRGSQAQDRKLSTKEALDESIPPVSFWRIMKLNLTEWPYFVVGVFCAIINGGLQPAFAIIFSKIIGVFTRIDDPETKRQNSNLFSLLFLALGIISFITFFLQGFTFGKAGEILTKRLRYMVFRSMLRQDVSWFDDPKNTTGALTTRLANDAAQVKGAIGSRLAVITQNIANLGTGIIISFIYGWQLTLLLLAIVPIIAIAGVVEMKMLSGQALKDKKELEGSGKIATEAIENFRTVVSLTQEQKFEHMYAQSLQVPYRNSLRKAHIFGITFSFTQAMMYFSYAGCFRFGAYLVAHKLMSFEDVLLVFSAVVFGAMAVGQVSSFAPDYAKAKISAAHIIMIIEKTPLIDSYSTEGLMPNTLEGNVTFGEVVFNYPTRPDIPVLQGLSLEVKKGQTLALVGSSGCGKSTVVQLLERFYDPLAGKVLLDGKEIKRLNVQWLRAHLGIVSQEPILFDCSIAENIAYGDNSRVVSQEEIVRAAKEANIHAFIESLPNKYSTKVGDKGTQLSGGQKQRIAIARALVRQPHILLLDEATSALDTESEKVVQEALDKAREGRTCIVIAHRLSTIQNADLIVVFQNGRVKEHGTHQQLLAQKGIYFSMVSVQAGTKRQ

[2] = Antiproliferative activity against multidrug resistant human COLO320 cells incubated for 72 hrs by MTT assay; type: functional; conditions: COLO 320, 72 h
L5178Y [3] = test: Antiproliferative activity against chemosensitive wild type parental mouse L5178Y cells incubated for 72 hrs by MTT assay; type: functional, cell-based
L5178Y [4] = test: Cytotoxicity against human ABCB1 expressing mouse L5178Y cells incubated for 24 hrs by MTT assay; type: functional, cell-based
[5] = Antiproliferative activity against chemosensitive human COLO205 cells incubated for 72 hrs by MTT assay; type: functional, cell-based; conditions: COLO 205, 72 h
[6] = target: T1, ATP-dependent translocase ABCB1; test: Inhibition of ABCB1 in multidrug resistant human COLO320 cells assessed as fluorescence activity ratio at 2 uM incubated for 10 mins by flow cytometry based rhodamine-123 accumulation assay (reference value: 0.62)
[7] = target: T1, ATP-dependent translocase ABCB1; test: Inhibition of human ABCB1 expressed in mouse L5178Y cells assessed as fluorescence activity ratio at 2 uM incubated for 10 mins by flow cytometry based rhodamine-123 accumulation assay (reference value: 0.78); type: cell-based
L5178Y [8] = test: Cytotoxicity against chemosensitive wild type parental mouse L5178Y cells incubated for 24 hrs by MTT assay; type: functional, cell-based
L5178Y [9] = test: Antiproliferative activity against human ABCB1 expressing mouse L5178Y cells incubated for 72 hrs by MTT assay; type: functional, cell-based
[10] = Cytotoxicity against multidrug resistant human COLO320 cells incubated for 24 hrs by MTT assay; type: functional, cell-based; conditions: COLO 320, 24 h
COLO 205 = test: Cytotoxicity against chemosensitive human COLO205 cells incubated for 24 hrs by MTT assay; type: functional, cell-based; conditions: COLO 205, 24 h
[11] = target: T1, ATP-dependent translocase ABCB1; test: Inhibition of human ABCB1 expressed in mouse L5178Y cells assessed as fluorescence activity ratio at 20 uM incubated for 10 mins by flow cytometry based rhodamine-123 accumulation assay (reference value: 0.78); type: cell-based
L5178Y [12] = test: Selectivity index, ratio of antiproliferative IC50 for wild type parental mouse L5178Y cells to antiproliferative IC50 for human ABCB1 expressing mouse L5178Y cells; type: functional
[13] = target: T1, ATP-dependent translocase ABCB1; test: Inhibition of human ABCB1 expressed in mouse L5178Y cells assessed as potentiation of 2 mg/ml doxorubicin-induced cytotoxicty by measuring combination index at 5:1 compound to doxorubicin ratio incubated for 48 hrs by MTT assay; type: cell-based
[14] = Selectivity index, ratio of antiproliferative IC50 for chemosensitive human COLO205 cells to antiproliferative IC50 for multidrug resistant human COLO320 cells; type: functional, COLO 205
[15] = target: T1, ATP-dependent translocase ABCB1; test: Inhibition of human ABCB1 expressed in mouse L5178Y cells assessed as fluorescence activity ratio at 0.2 uM incubated for 10 mins by flow cytometry based rhodamine-123 accumulation assay (reference value: 0.78); type: cell-based
L5178Y [16] = test: Selectivity index, ratio of cytotoxic IC50 for wild type parental mouse L5178Y cells to cytotoxic IC50 for human ABCB1 expressing mouse L5178Y cells; type: functional
[17] = target: T1, ATP-dependent translocase ABCB1; test: Inhibition of ABCB1 in multidrug resistant human COLO320 cells assessed as fluorescence activity ratio at 0.2 uM incubated for 10 mins by flow cytometry based rhodamine-123 accumulation assay (reference value: 0.62)
[18] = Selectivity index, ratio of cytotoxic IC50 for chemosensitive human COLO205 cells to cytotoxic IC50 for multidrug resistant human COLO320 cells; type: functional, COLO 205

Row | Ratio [1] | Ratio [6] | Ratio [7] | Ratio [11] | Ratio [15] | Ratio [17] | Structure (SMILES) | IC50 [2] | IC50 (L5178Y [3]) | IC50 (L5178Y [4]) | IC50 [5] | IC50 (L5178Y [8]) | IC50 (L5178Y [9]) | IC50 [10] | IC50 (COLO 205) | Ratio IC50 (L5178Y [12]) | CI [13] | Ratio IC50 [14] | Ratio IC50 (L5178Y [16]) | Ratio IC50 [18]
1 | 1.42 | 1.09 | 1.22 | 1.38 |  |  | C/C1=C\[C@@H]2[C@H](CC[C@]3(CO3)[C@H](OC(=O)N3CCOCC3)[C@H]3[C@@H](OC(=O)N4CCOCC4)[C@@H](C)C[C@]3(O)C1=O)C2(C)C | > 100 µM | > 100 µM | > 100 µM | > 100 µM | > 100 µM | > 100 µM | > 100 µM | > 100 µM |  |  |  |  | 
2 | 5.5 | 1.67 | 6.09 | 42.56 |  |  | C/C1=C\[C@@H]2[C@H](CC[C@]3(CO3)[C@H](OC(=O)c3ccco3)[C@H]3[C@@H](OC(=O)c4ccco4)[C@@H](C)C[C@]3(O)C1=O)C2(C)C | 28.4 µM | 24.8 µM | > 50 µM | 27.8 µM | > 50 µM | > 50 µM | > 50 µM | > 50 µM | <0.5 | 0.053 | 0.98 |  | 
3 | 3.39 | 2.52 | 38.72 | 38.97 |  |  | C/C1=C\[C@@H]2[C@H](CC[C@]3(CO3)[C@H](OC(=O)c3ccc(C(F)(F)F)cc3)[C@H]3[C@@H](OC(=O)c4ccc(C(F)(F)F)cc4)[C@@H](C)C[C@]3(O)C1=O)C2(C)C | > 100 µM | > 100 µM | > 100 µM | > 100 µM | > 100 µM | > 100 µM | > 100 µM | > 100 µM |  |  |  |  | 
4 | 2.25 | 1.1 | 1.16 | 2.07 |  |  | CCC(=O)OC[C@]1(O)CC[C@H]2[C@@H](/C=C(\C)C(=O)[C@@]3(O)C[C@H](C)[C@H](OC(=O)CC)[C@@H]3[C@H]1O)C2(C)C | > 100 µM | > 100 µM | > 100 µM | > 100 µM | > 100 µM | > 100 µM | > 100 µM | > 100 µM |  |  |  |  | 
5 | 3.54 | 1.54 | 1.71 | 10.62 |  |  | CCN(CC)C(=O)O[C@@H]1[C@@H]2[C@@H](OC(=O)N(CC)CC)[C@]3(CC[C@H]4[C@@H](/C=C(\C)C(=O)[C@@]2(O)C[C@@H]1C)C4(C)C)CO3 | > 100 µM | > 100 µM | > 100 µM | > 100 µM | > 100 µM | > 100 µM | > 100 µM | > 100 µM |  |  |  |  | 
6 | 2.64 | 2.7 | 22.82 | 30.97 |  |  | C/C1=C\[C@@H]2[C@H](CC[C@]3(CO3)[C@H](OC(=O)c3ccc(-c4ccccc4)cc3)[C@H]3[C@@H](OC(=O)c4ccc(-c5ccccc5)cc4)[C@@H](C)C[C@]3(O)C1=O)C2(C)C | > 100 µM | 74.3 µM | > 100 µM | > 100 µM | > 100 µM | > 100 µM | > 100 µM | > 100 µM | <0.74 |  |  |  | 

Second part, the compound before the results:

Row | Structure (SMILES) | Ratio [1] | Ratio [6] | Ratio [7] | Ratio [11] | Ratio [15] | Ratio [17] | IC50 [2] | IC50 (L5178Y [3]) | IC50 (L5178Y [4]) | IC50 [5] | IC50 (L5178Y [8]) | IC50 (L5178Y [9]) | IC50 [10] | IC50 (COLO 205) | Ratio IC50 (L5178Y [12]) | CI [13] | Ratio IC50 [14] | Ratio IC50 (L5178Y [16]) | Ratio IC50 [18]
7 | COc1ccc(CCN(C)CCCC(C#N)(c2ccc(OC)c(OC)c2)C(C)C)cc1OC (stereo not drawn) | 8.95 |  |  |  |  |  |  |  |  |  |  |  |  |  |  |  |  |  | 
8 | C/C1=C\[C@@H]2[C@H](CC[C@]3(CO3)[C@H](O)[C@H]3[C@@H](O)[C@@H](C)C[C@]3(O)C1=O)C2(C)C | 1.05 | 1.02 | 1.15 | 1.49 |  |  | > 100 µM | > 100 µM | > 100 µM | > 100 µM | > 100 µM | > 100 µM | > 100 µM | > 100 µM |  |  |  |  | 
9 | C/C1=C\[C@@H]2[C@H](CC[C@@](C)(O)[C@H](O)[C@H]3[C@@H](O)[C@@H](C)C[C@]3(O)[C@@H]1O)C2(C)C | 3.81 | 1.02 | 0.51 | 11.61 |  |  | > 100 µM | > 100 µM | > 100 µM | > 100 µM | > 100 µM | > 100 µM | > 100 µM | > 100 µM |  |  |  |  | 
10 | C/C1=C\[C@@H]2[C@H](CC[C@@](C)(O)[C@H](O)[C@H]3[C@@H](O)[C@@H](C)C[C@]3(O)[C@H]1O)C2(C)C | 1.11 | 1 | 0.54 | 0.59 |  |  | > 100 µM | > 100 µM | > 100 µM | > 100 µM | > 100 µM | > 100 µM | > 100 µM | > 100 µM |  |  |  |  | 
11 | CO[C@H]1[C@@H]2[C@H](CC[C@]3(COC(=O)c4ccc(C(F)(F)F)cc4)O[C@@H]3[C@H]3[C@@H](OC(=O)c4ccc(C(F)(F)F)cc4)[C@@H](C)C[C@]3(O)C(=O)[C@@H]1C)C2(C)C | 11.56 | 8.25 | 39.3 | 41.81 | 9.87 | 2.83 | 9.3 µM | 33.3 µM | 50.9 µM | 8.2 µM | 48 µM | 37.6 µM |  |  | 0.78 | 0.054 | 0.88 | 0.94 | 
12 | C/C1=C\[C@@H]2[C@H](CC[C@@](C)(O)[C@H](O)[C@H]3[C@@H](OC(=O)c4ccccc4)[C@@H](C)C[C@]3(O)[C@H]1OC(=O)c1ccccc1)C2(C)C | 5.78 | 2.94 | 43.35 | 71.12 | 2.33 | 1.48 | 30.5 µM | 38.5 µM | 50.7 µM | > 100 µM | 52.4 µM | > 100 µM | 51.2 µM | 44.9 µM | <0.39 |  | >3.28 | 1.03 | 0.88
13 | CO[C@H]1[C@@H]2[C@H](CC[C@]3(CO)O[C@@H]3[C@H]3[C@@H](O)[C@@H](C)C[C@]3(O)C(=O)[C@@H]1C)C2(C)C | 2.26 | 1.1 | 1.22 | 18.3 |  |  | > 100 µM | > 100 µM | > 100 µM | > 100 µM | > 100 µM | > 100 µM | > 100 µM | > 100 µM |  |  |  |  | 
14 | CC(=O)O[C@@H]1[C@@H]2[C@@H](OC(C)=O)[C@](C)(OC(C)=O)CC[C@H]3[C@@H](/C=C(\C)[C@H](OC(C)=O)[C@@]2(OC(C)=O)C[C@@H]1C)C3(C)C | 5.98 | 2.76 | 11.37 | 51.34 |  |  | > 100 µM | > 100 µM | > 100 µM | > 100 µM | > 100 µM | > 100 µM | 51.4 µM | 49.1 µM |  | 0.205 |  |  | 0.96
15 | CCO[C@@H]1[C@@H]2C(=O)C(O)(C[C@H](C)[C@@H]2O)/C(C)=C\[C@@H]2[C@H](CC[C@@]1(O)CO)C2(C)C | 3.18 | 1.5 | 5.85 | 38.92 |  |  | > 100 µM | > 100 µM | > 100 µM | > 100 µM | > 100 µM | > 100 µM | > 100 µM | > 100 µM |  |  |  |  | 
16 | C/C1=C\[C@@H]2[C@H](CC[C@]3(CO3)[C@H](OC(=O)C34CC5CC(CC(C5)C3)C4)[C@H]3[C@@H](OC(=O)C45CC6CC(CC(C6)C4)C5)[C@@H](C)C[C@]3(O)C1=O)C2(C)C | 1.64 | 1.2 | 22.36 | 31.69 |  |  | 27.6 µM | > 50 µM | > 50 µM | > 50 µM | > 50 µM | > 50 µM | > 50 µM | > 50 µM |  |  | >1.81 |  | 
